Laboratory results from PubChem BioAssay AID330 (DTP/NCI, 2004).
Where “and” joins values, the source holds several entries; their conditions need not be identical. Equal values may be shown once. Toxic doses and inconclusive results are not listed. The calls were made as follows: active = survival T/C of 150% or more; inactive = T/C below 125% in these data.

Tested on: P388 leukemia ip, CD2F1 mice, survival T/C
Assay: NCI In Vivo Anticancer Drug Screen. Data for tumor model P388 Leukemia (intraperitoneal) in CD2F1 (CDF1) mice
Details: endpoint: median survival time, higher = longer survival
How it was run: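 Mice carrying the transplanted tumor received test compound or vehicle. Survival was recorded in each group, and the value is the treated-group measurement divided by that of the vehicle-treated control group.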

[1] = dose: 12.5 mg/kg/injection, schedule: Q01DX009 (ip), vehicle: saline with Tween-80
[2] = dose: 25.0 mg/kg/injection, schedule: Q01DX009 (ip), vehicle: saline with Tween-80
[3] = dose: 50.0 mg/kg/injection, schedule: Q01DX009 (ip), vehicle: saline with Tween-80
[4] = dose: 50.0 mg/kg/injection, schedule: Q01DX009 (ip), vehicle: saline
[5] = dose: 100.0 mg/kg/injection, schedule: Q01DX009 (ip), vehicle: saline
[6] = dose: 60.0 mg/kg/injection, schedule: Q01DX005 (ip), vehicle: saline with Tween-80
[7] = dose: 120.0 mg/kg/injection, schedule: Q01DX005 (ip), vehicle: saline with Tween-80
[8] = dose: 240.0 mg/kg/injection, schedule: Q01DX005 (ip), vehicle: saline with Tween-80
[9] = dose: 200.0 mg/kg/injection, schedule: Q01DX009 (ip), vehicle: saline with Tween-80
[10] = dose: 100.0 mg/kg/injection, schedule: Q01DX009 (ip), vehicle: saline with Tween-80
[11] = dose: 6.25 mg/kg/injection, schedule: Q01DX009 (ip), vehicle: saline with Tween-80
[12] = dose: 200.0 mg/kg/injection, schedule: Q01DX009 (ip), vehicle: saline

Measured: T/C

Cn1/c2cc/c1=C(\c1ccc(S(=O)(=O)O)cc1)c1ccc([n-]1)/C(c1ccc(S(=O)(=O)O)cc1)=c1/cc/c([nH]1)=C(\c1ccc(S(=O)(=O)O)cc1)c1ccc([n-]1)/C=2c1ccc(S(=O)(=O)O)cc1.O.O=S(=O)(O)C(F)(F)F.[Cu+2]
inactive: [1] 112 % of control | [2] 121 % of control | [3] 119 % of control | [4] 92 % of control | [5] 100 % of control

N#CC1=C(O)/C(=C\C=C\c2ccccc2)N(C(=O)c2ccccc2)C1=N
inactive: [6] 105 % of control | [7] 100 % of control | [8] 104 % of control

CC(C)(C)OC(=O)O/N=C(\C#N)c1ccccc1
inactive: [1] 90 % of control | [2] 104 % of control | [3] 100 % of control and 103 % of control | [9] 100 % of control

NCC(O)c1ccc(Nc2ccnc3cc(Cl)ccc23)cc1 (stereo unspecified)
inactive: dose: 50.0 mg/kg/injection, schedule: Q01DX005 (ip), vehicle: saline 114 % of control | dose: 100.0 mg/kg/injection, schedule: Q01DX005 (ip), vehicle: saline 105 % of control

CC(=O)CC(=O)CCCCC(=O)O
inactive: [3] 112 % of control | [10] 112 % of control | [9] 104 % of control

COc1ccc(CC2C(=O)NC(C)C(=O)N(C)C3C(=O)N(C)C(Cc4ccc(O)c(c4)Oc4ccc(cc4)C3O)C(=O)NC(C)C(=O)NC(C)C(=O)N2C)cc1 (stereo unspecified) (tested in a mixture with another compound)
active: dose: 1.0 mg/kg/injection, schedule: Q01DX009 (ip), vehicle: Klucel (hydroxypropylcellulose) (HPC) 158 % of control | dose: 2.0 mg/kg/injection, schedule: Q01DX009 (ip), vehicle: Klucel (hydroxypropylcellulose) (HPC) 158 % of control | dose: 4.0 mg/kg/injection, schedule: Q01DX009 (ip), vehicle: Klucel (hydroxypropylcellulose) (HPC) 155 % of control | dose: 250.0 micrograms/kg/injection, schedule: Q01DX009 (ip), vehicle: saline 156 % of control | dose: 500.0 micrograms/kg/injection, schedule: Q01DX009 (ip), vehicle: saline 152 % of control | dose: 1000.0 micrograms/kg/injection, schedule: Q01DX009 (ip), vehicle: saline 158 % of control

CCNC(=O)/N=c1/sc([N+](=O)[O-])cn1CC(=O)N(C)C(=O)OCC
inactive: dose: 25.0 mg/kg/injection, schedule: Q01DX001 (ip), vehicle: saline 100 % of control | dose: 50.0 mg/kg/injection, schedule: Q01DX001 (ip), vehicle: saline 98 % of control | dose: 100.0 mg/kg/injection, schedule: Q01DX001 (ip), vehicle: saline 100 % of control

CC(=O)CSC1=CC(C)(C)CC1=O
inactive: dose: 50.0 mg/kg/injection, schedule: Q01DX005 (ip), vehicle: Klucel (hydroxypropylcellulose) (HPC) 96 % of control | dose: 100.0 mg/kg/injection, schedule: Q01DX005 (ip), vehicle: Klucel (hydroxypropylcellulose) (HPC) 99 % of control | dose: 200.0 mg/kg/injection, schedule: Q01DX005 (ip), vehicle: Klucel (hydroxypropylcellulose) (HPC) 99 % of control

C/C(=N\N=c1\sc2ccccc2n1CC(=O)O)c1ccc(C)cc1
inactive: dose: 100.0 mg/kg/injection, schedule: Q01DX001 (ip), vehicle: saline with Tween-80 102 % of control | dose: 200.0 mg/kg/injection, schedule: Q01DX001 (ip), vehicle: saline with Tween-80 106 % of control | dose: 400.0 mg/kg/injection, schedule: Q01DX001 (ip), vehicle: saline with Tween-80 101 % of control

Cc1cccc(Cl)c1NC(=O)N(C)c1ccccc1
inactive: [6] 99 % of control | [7] 100 % of control | [8] 97 % of control

CC1(c2ccc([N+](=O)[O-])cc2)OC(=O)C(=Cc2ccc([N+](=O)[O-])s2)C(=O)O1 (stereo unspecified)
inactive: [3] 103 % of control | [10] 96 % of control | [9] 103 % of control

O=C(Nc1ccc(Cl)cc1)Nc1nnc(-c2ccccc2Br)o1
inactive: [6] 105 % of control | [7] 94 % of control | [8] 95 % of control

CSc1nc(C)c(Br)c(Nc2ccc(C(N)=O)cc2)n1
inactive: dose: 3.13 mg/kg/injection, schedule: Q01DX009 (ip), vehicle: saline with Tween-80 102 % of control | [11] 94 % of control | [1] 96 % of control | [2] 94 % of control

Nc1nc(-c2ccc([N+](=O)[O-])cc2)cc(-c2cc(-c3ccc([N+](=O)[O-])cc3)nc(N)n2)n1
inactive: dose: 60.0 mg/kg/injection, schedule: Q01DX005 (ip), vehicle: Klucel (hydroxypropylcellulose) (HPC) 87 % of control | dose: 120.0 mg/kg/injection, schedule: Q01DX005 (ip), vehicle: Klucel (hydroxypropylcellulose) (HPC) 89 % of control | dose: 240.0 mg/kg/injection, schedule: Q01DX005 (ip), vehicle: Klucel (hydroxypropylcellulose) (HPC) 94 % of control

COC(=O)CC(OC)OC
inactive: [10] 100 % of control | dose: 100.0 mg/kg/injection, schedule: Q04DX003 (ip), vehicle: saline 91 % of control | [9] 113 % of control | dose: 200.0 mg/kg/injection, schedule: Q04DX003 (ip), vehicle: saline 91 % of control | dose: 400.0 mg/kg/injection, schedule: Q01DX009 (ip), vehicle: saline with Tween-80 113 % of control | dose: 400.0 mg/kg/injection, schedule: Q04DX003 (ip), vehicle: saline 95 % of control

O=[N+]([O-])/C=C/c1cc(Br)c(O)c(Br)c1
inactive: [4] 96 % of control | [5] 115 % of control | [12] 96 % of control

O=c1c2[nH]c3ccccc3sc=2c(=O)n1-c1ccccc1Cl
inactive: dose: 50.0 mg/kg/injection, schedule: Q01DX005 (ip), vehicle: saline with Tween-80 98 % of control | [7] 98 % of control | dose: 200.0 mg/kg/injection, schedule: Q01DX005 (ip), vehicle: saline with Tween-80 97 % of control

CCCCCCCCCCCCCCCC(=O)N(C/C=C/CN(CCCN(C)C)C(=O)CCCCCCCCCCCCCCC)CCCN(C)C
inactive: [11] 100 % of control | [1] 90 % of control | [2] 90 % of control

C/C=C1/CN(C)C2Cc3c([nH]c4ccccc34)C(c3cc4[nH]c5c(c4cc3OC)CCN3CC4CC(CC)C3C5(COC(=O)c3ccc(OC)c(OC)c3)C4)CC1C2C(=O)OC (stereo unspecified)
inactive: dose: 6.25 mg/kg/injection, schedule: Q01DX001 (ip), vehicle: Klucel (hydroxypropylcellulose) (HPC) 107 % of control | dose: 12.5 mg/kg/injection, schedule: Q01DX001 (ip), vehicle: Klucel (hydroxypropylcellulose) (HPC) 106 % of control | dose: 25.0 mg/kg/injection, schedule: Q01DX001 (ip), vehicle: Klucel (hydroxypropylcellulose) (HPC) 106 % of control and 113 % of control | dose: 50.0 mg/kg/injection, schedule: Q01DX001 (ip), vehicle: Klucel (hydroxypropylcellulose) (HPC) 104 % of control | dose: 100.0 mg/kg/injection, schedule: Q01DX001 (ip), vehicle: Klucel (hydroxypropylcellulose) (HPC) 100 % of control | dose: 200.0 mg/kg/injection, schedule: Q01DX001 (ip), vehicle: Klucel (hydroxypropylcellulose) (HPC) 100 % of control

CC(=O)n1c(N)nc2ccccc21
inactive: [4] 104 % of control | [5] 104 % of control | [12] 90 % of control

Cc1ccc(S(=O)(=O)N(CCc2ccccc2)S(=O)(=O)c2ccc(C)cc2)cc1
inactive: dose: 50.0 mg/kg/injection, schedule: Q01DX009 (ip), vehicle: Klucel (hydroxypropylcellulose) (HPC) 94 % of control | dose: 100.0 mg/kg/injection, schedule: Q01DX009 (ip), vehicle: Klucel (hydroxypropylcellulose) (HPC) 100 % of control | dose: 200.0 mg/kg/injection, schedule: Q01DX009 (ip), vehicle: Klucel (hydroxypropylcellulose) (HPC) 109 % of control

COc1ccc([N+](=O)[O-])c(C=O)c1OS(=O)(=O)c1ccc(C)c([N+](=O)[O-])c1
inactive: dose: 25.0 mg/kg/injection, schedule: Q01DX009 (ip), vehicle: distilled water + Tween-80 93 % of control | dose: 100.0 mg/kg/injection, schedule: Q01DX009 (ip), vehicle: distilled water + Tween-80 98 % of control | dose: 200.0 mg/kg/injection, schedule: Q01DX009 (ip), vehicle: distilled water + Tween-80 90 % of control | dose: 400.0 mg/kg/injection, schedule: Q01DX009 (ip), vehicle: distilled water + Tween-80 90 % of control

CCOC(=O)c1cc(/C=C/c2ccc(Cl)cc2Cl)on1
inactive: [6] 100 % of control | [7] 90 % of control

CC(=O)Nc1cc(NC(C)=O)cc(N(CCCl)CCCl)c1
inactive: dose: 3.13 mg/kg/injection, schedule: Q01DX009 (ip), vehicle: water 118 % of control | dose: 37.5 mg/kg/injection, schedule: Q01DX009 (ip), vehicle: water 122 % of control
active: dose: 12.5 mg/kg/injection, schedule: Q01DX009 (ip), vehicle: water 151 % of control | dose: 16.5 mg/kg/injection, schedule: Q01DX009 (ip), vehicle: water 162 % of control | dose: 25.0 mg/kg/injection, schedule: Q01DX009 (ip), vehicle: water 154 % of control and 169 % of control and 196 % of control
